# Laboratory results from patent publication US20090082355A1, “Method of Combating Root Weevils” (BASF SE, priority 2006, published 2009).
# Tests used:
# Assay type in all cases: in vivo, Otiorhynchus sulcatus (black vine weevil)
# [1] = system: Otiorhynchus sulcatus; assay: Control of Otiorhynchus sulcatus adults on Euonymus fortunei 'Dart's Blanket': feeding effect; details: 10 untreated weevils, 20° C.
# Protocol: (§1) The efficacy of different doses of compound I-1 to control adults of the black vine weevil (Otiorhynchus sulcatus) was tested after direct contact and after feeding of the product. The formulated product was dissolved in water and the resulting aqueous solution/suspension was applied to black vine weevil adults directly or to Euonymus fortunei branches and the branches were exposed to black vine weevil adults.
# 4 plants of Euonymus fortunei ‘Dart's Blanket’ per treatment were sprayed until drip stadium. 10 untreated black vine weevils were put in a bucket in which 5 treated branches were placed. The buckets were randomly placed on Danish lorries in a climate cell. After 5 and 10 days the number of dead vine weevils were counted. The climate cell was adjusted at a constant temperature of 20° C. with 16 hours of light and 8 hours of darkness. Each treatment was replicated 4 times.
# [2] = system: Otiorhynchus sulcatus; assay: Control of Otiorhynchus sulcatus adults on Euonymus fortunei 'Dart's Blanket': contact effect; details: 20° C.
# Protocol: as §1
# The treatments were applied by spraying 10 black vine weevils per petri-dish. The vine weevils were completely moistened after spraying. Afterwards the vine weevils were put into a bucket, in which 5 untreated branches of Euonymus fortunei ‘Dart's Blanket’ were placed. The buckets were randomly placed on Danish lorries in a climate cell. After 1 and 5 days, the number of dead vine weevils was counted. The climate cell was adjusted at a constant temperature of 20° C. with 16 hours of light and 8 hours of darkness. Each treatment was replicated 4 times.
# [3] = system: Otiorhynchus sulcatus; assay: Control of Otiorhynchus sulcatus eggs/first instar larvae on the Spreading Yew (treated potting medium); details: DC formulation, Taxus media densiformis, 25 eggs per plant, live larvae recorded after 3 months
# Protocol: Taxus media densiformis plants were planted in potting medium (60% parts pine bark, 20% hardwood bark and 20% peat) which had been treated before with a DC formulation of the active ingredient diluted with water. Plants were maintained outdoors under standard nursery management conditions throughout the growing season. Incubated vine weevil eggs were obtained from a culture of field-collected adults. Plants were infested with 25 brown eggs each. The total number of live larvae was recorded after 3 months. Each experiment was replicated 5 times.
# [4] = system: Otiorhynchus sulcatus; assay: Control of Otiorhynchus sulcatus larvae in the woody ornamental Thuja occidentalis 'Holmstrub' (pot trial); details: for Average feeding on roots: method B, index 1 no feeding observed to 4 most roots are damaged; for Average number of total larvae: treatment method B (drench), 20 eggs per pot, approx. 8 months after treatment
# Protocol: Root cuttings of Thuja occidentalis ‘Holmstrub’ were potted in 3-liter containers using a standard soil substrate and first placed on an outdoor container field for four months and then transferred to an indoor container field at a temperature of 15-20° C. for another four months. In treatment method A, 750 g Suscon (chloropyrifos)/m^3 were mixed through the soil substrate. In treatment method B, the calculated amount of product was dissolved in 0.75 l water and added to the 3 litre pot as a drench. The soil of the pot was moistened before application. Eggs of Otiorhynchus sulcatus (20 eggs per pot) were added to the pots 15 weeks after treatment. Approximately 8 months after treatment, the average total number of live larvae (hereinafter also referred to as “average of total larvae”) and the average feeding on the roots were determined. The feeding on the roots was assessed according to the following index rating:
# 1 no feeding observed 2 slight feeding 3 significant feeding, few root tips are present 4 most roots are damaged
# Each experiment was replicated 4 times.
# [5] = branches sprayed with 1.14 g a.i./l
# [6] = branches sprayed with 2.27 g a.i./l
# [7] = branches sprayed with 4.56 g a.i./l
# [8] = 1.14 g a.i./l sprayed on 10 weevils
# [9] = 2.27 g a.i./l sprayed on 10 weevils
# [10] = 4.56 g a.i./l sprayed on 10 weevils
compound,measurement,setting,value
"CCNC(=NNc1c(Cl)cc(C(F)(F)F)cc1Cl)C1(C)CC1(Cl)Cl (stereo not drawn) [Compound I-1, N-Ethyl-2,2-dichloro-1-methylcyclopropane-carboxamide-2-(2,6-dichloro-α,α,α-trifluoro-p-tolyl)hydrazone]",Average number of dead adults after 5 days,[1]; [5],8.5
same,Average number of dead adults after 10 days,[1]; [5],10.0
same,Average number of dead adults after 5 days,[1]; [6],6.5
same,Average number of dead adults after 10 days,[1]; [6],8.8
same,Average number of dead adults after 5 days,[1]; [7],8.8
same,Average number of dead adults after 10 days,[1]; [7],10.0
same,Average number of dead adults after 1 day,[2]; [8],0.5
same,Average number of dead adults after 5 days,[2]; [8],6.0
same,Average number of dead adults after 1 day,[2]; [9],0.3
same,Average number of dead adults after 5 days,[2]; [9],9.0
same,Average number of dead adults after 1 day,[2]; [10],0.8
same,Average number of dead adults after 5 days,[2]; [10],8.5
same,control,[3]; rate 250 ppm in potting medium,over 95%
same,control,[3]; rate 750 ppm in potting medium,over 95%
same,control,[3]; rate 1500 ppm in potting medium,over 95%
same,Average feeding on roots,[4]; 0.9125 g or ml product/3 l pot,1.1
same,Average number of total larvae,[4]; 0.9125 g or ml product/3 l pot,0.1
same,Average feeding on roots,[4]; 1.825 g or ml product/3 l pot,1.0
same,Average number of total larvae,[4]; 1.825 g or ml product/3 l pot,0.0
same,Average feeding on roots,[4]; 3.65 g or ml product/3 l pot,1.0
same,Average number of total larvae,[4]; 3.65 g or ml product/3 l pot,0.0
same,phytotoxicity,[4]; Thuja occidentalis 'Holmstrub' pot trial,no signs of phytotoxicity
same,efficacy against the larvae (in words),[4]; all treatments in different doses,effective against the larvae of Otiorhynchus sulcatus
same,control of larvae and feeding damage compared with the standard treatment,[4]; versus Suscon (chloropyrifos),better control of Otiorhynchus sulcatus larvae and feeding damage than the standard treatment of Suscon (chloropyrifos)
